Assay results taken from patent US12064445B2, “Cytarabine conjugates for cancer therapy” (Biosight Ltd., priority 2015, dated 2024).

Experiments:
[1] = Maximal tolerated dose, single dose IP in mice; type: in vivo
Protocol: Ten weeks of age IRC mice were injected IP with a single dose of Astarabine®, ranging from 1428 to 8271 mg/kg (50 to 300 mg/mice, respectively). Clinical evaluation included mobility observations, food and water consumption. […] After 7 days, the mice were sampled for hematology and biochemistry and then subjected to necropsy.

[2] = test system: human leukemia cell lines; experiment: Astarabine metabolite assay in human leukemia cell lines; type: cell-based
RPMI8226 (Human myeloma) = experiment: MTT assay, IC50 in tumor cell lines; type: cell-based; details: RPMI-8226, RPMI8226, 72 hr
Protocol: The effect of Astarabine® on different cell lines was evaluated. Briefly, various cell lines were obtained from ATCC or ECACC. Hematological cells were grown in RPMI medium containing 10-20% FBS and 1% glutamine. Solid tumor cells were grown in DMEM medium containing 10-20% FBS and 1% glutamine. Cells were seeded into 96-well plates, 50,000 cells/ml, 0.2 ml per well. […] The study was conducted in triplicates, PBS was used as control. Plates were incubated for 72 hr at 37° C., 5% CO2. At the end of the exposure period, a MTT assay using the MTT reagent [3-(4,5-dimethylthiazol-2-yl)-2,5-diphenyltetrazolium bromide] was performed. MTT was added to each well at a concentration of 5 mg/ml in a volume of 0.02 ml. Plates were incubated at 37° C. for 3 h. The plates were centrifuged at 3500 rpm for 5 minutes and the supernatant was aspired. The pellets which contained MTT crystals were each dissolved in 0.2 ml DMSO. Absorbance was determined using ELISA reader at a wavelength of 570 nm.

[3] = ICR, mouse, in vivo
Protocol: In vivo tolerability/toxicology studies were used to determine the MTD of a single dose of Astarabine® in mice (FIG. 1A) or of 14 daily repeated doses of Astarabine® in mice (FIG. 1B). The MTD was evaluated for intravenous (IV) or intraperitoneal (IP) administration.

[4] = Maximal tolerated dose, repeated dose IP (7 days) in mice; type: in vivo; details: for MTD at 7 days: TRC, mouse, in vivo
From the text: All mice were inspected daily during drug administration and recovery period. Clinical evaluation included mobility observations, food and water consumption. […] Hematology and biochemical blood tests were shown normal at the end of the experiment.

[5] = test system: Molt-4 (Human acute lymphoblastic leukemia); experiment: MTT assay, IC50 in tumor cell lines; type: cell-based; details: Molt-4, 72 hr
Protocol: (§1) The effect of Astarabine® on different cell lines was evaluated. Briefly, various cell lines were obtained from ATCC or ECACC. Hematological cells were grown in RPMI medium containing 10-20% FBS and 1% glutamine. Solid tumor cells were grown in DMEM medium containing 10-20% FBS and 1% glutamine. Cells were seeded into 96-well plates, 50,000 cells/ml, 0.2 ml per well. Test substances were diluted in saline or PBS and added in final concentrations of 0.1 nM to 10 μM, in a volume of 20 μl. The study was conducted in triplicates, PBS was used as control. Plates were incubated for 72 hr at 37° C., 5% CO2. At the end of the exposure period, a MTT assay using the MTT reagent [3-(4,5-dimethylthiazol-2-yl)-2,5-diphenyltetrazolium bromide] was performed. MTT was added to each well at a concentration of 5 mg/ml in a volume of 0.02 ml. Plates were incubated at 37° C. for 3 h. The plates were centrifuged at 3500 rpm for 5 minutes and the supernatant was aspired. The pellets which contained MTT crystals were each dissolved in 0.2 ml DMSO. Absorbance was determined using ELISA reader at a wavelength of 570 nm.

[6] = test system: L1210 (Mouse DBA/2 lymphocytic leukemia); experiment: MTT assay, IC50 in tumor cell lines; type: cell-based; details: L1210, 72 hr
Protocol: as §1

[7] = test system: K562 (Human chronic myelogenous leukemia); experiment: MTT assay, IC50 in tumor cell lines; type: cell-based; details: K562, 72 hr
Protocol: as §1

[8] = test system: THP-1 (Human monocytic leukemia); experiment: MTT assay, IC50 in tumor cell lines; type: cell-based; details: THP-1, 72 hr
Protocol: as §1

[9] = test system: P388.D1 (Mouse lymphoid macrophage); experiment: MTT assay, IC50 in tumor cell lines; type: cell-based; details: P388D1, P388.D1, 72 hr
Protocol: as §1

[10] = test system: CCRF-SB (Human acute lymphoblastic leukemia); experiment: MTT assay, IC50 in tumor cell lines; type: cell-based; details: 72 hr
Protocol: as §1

[11] = test system: MEG 01 (Human chronic myelogenous leukemia); experiment: MTT assay, IC50 in tumor cell lines; type: cell-based; details: MEG 01, 72 hr
Protocol: as §1

[12] = test system: HL-60 (Human promyelocytic leukemia); experiment: MTT assay, IC50 in tumor cell lines; type: cell-based; details: HL-60, 72 hr
Protocol: as §1

[13] = test system: HepG2 (Human hepatocellular carcinoma); experiment: MTT assay, IC50 in tumor cell lines; type: cell-based; details: HepG2, 72 hr
Protocol: as §1

[14] = test system: SU DHL-5 (Human B-cell non Hodgkin's lymphoma); experiment: MTT assay, IC50 in tumor cell lines; type: cell-based; details: SU DHL-5, 72 hr
Protocol: as §1

Structure (SMILES): N[C@@H](CC(=O)Nc1ccn([C@@H]2O[C@H](CO)[C@@H](O)[C@@H]2O)c(=O)n1)C(=O)O [Astarabine®]
- MTD at 7 days ([1]; IRC, mouse, in vivo, single dose IP): 8270 mg/kg
- Blood samples (hematology and biochemistry) ([1]; single IP dose 8271 mg/kg, after 7 days of recovery): normal results
- Necropsy, tissues ([1]; single IP dose 1428 to 8271 mg/kg, all mice): normal, with no macroscopic findings
- Metabolites detected in cells [2]: detected free cytarabine metabolites
- IC50 (RPMI8226 (Human myeloma)): 33.4 to 144 µM
- Reduction of toxicity in animals compared to the reported toxicity of cytarabine [3]: 10-20 fold
- Gross necropsy ([4]; IP 7 days, 156 to 781 mg/kg/day): no abnormal findings
- Hematology and biochemical blood tests ([4]; IP 7 days, 156 to 781 mg/kg/day, end of experiment): normal
- MTD at 7 days ([4]; 781 mg/kg/day IP for 7 days, read-out: Accumulative dose at MTD): 5470 mg/kg
- MTD at 7 days ([4]; IP for 7 days, read-out: MTD (maximal tolerated dose)): 781 mg/kg/day
- IC50 [5]: 0.004 to 0.024 µM
- IC50 [6]: 0.0394 to 0.116 µM
- IC50 [7]: 0.194 to 0.516 µM
- IC50 [8]: 7.1 to 52 µM
- IC50 [9]: 1.9 to 2.6 µM
- IC50 [10]: 11 to 21.4 µM
- IC50 [11]: 1.7 µM
- IC50 [12]: 0.256 to 0.276 µM
- IC50 [13]: 7 to 7.5 µM
- IC50 [14]: 0.196 µM
